According to patent US11560373B2, “Compounds and their use as PDE4 activators” (Mironid Limited, priority 2018, dated 2023):

Columns and labels:
PDE4D5 = molecular target: T1, PDE4D5 (Homo sapiens, UniProt Q08499); test: PDE assay, [3H]cAMP hydrolysis by HEK-PDE4D5 cell lysate cytosol fraction; type: biochemical; settings: 30 μM; mean % increase in counts over basal activity
T1 construct: stably expressed the full-length human PDE4D5, PDE4B1 and PDE4A4 long isoforms; made in house
Experimental: (§1) HEK 293 cells were transfected with pDEST™ PDE4 expression vectors using Lipofectamine LTX/Plus reagent (Invitrogen) as outlined by the manufacturer and clonal isolates expanded to obtain cell lines that stably expressed the full-length human PDE4D5, PDE4B1 and PDE4A4 long isoforms and the full length human PDE4B2 short isoform. These were called the HEK-PDE4D5, HEK-PDE4B1, HEK-PDE4A4 and HEK-PDE4B2 cell lines, respectively.
(§2) HEK-PDE4D5 cells were seeded out in 100 mm plates and incubated at 37° C. in an atmosphere of 5% CO2, 95% air. Cell lysates were prepared using KHEM buffer [50 mM KCl, 10 mM EGTA, 50 mM HEPES (pH 7.2), 1.92 mM MgCl2].
(§3) To prepare the cell lysates, the 100 mm plates containing the cells were placed on ice and washed with ice-cold PBS (phosphate buffered saline, pH 7.4). KHEM buffer (500 μl) was added to the cells. Cells were then scraped off the plate and triturated using a needle (BD Microlance™ 0.8, 40 mm). The lysed cells were then centrifuged at 2000 rpm for 10 minutes to remove cell debris and the supernatant (cell lysate containing recombinant PDE4D5) was transferred to a fresh tube and kept on ice.
(§4) The cell lysate containing recombinant PDE4D5 was transferred into a centrifuge tube and placed into an ultracentrifuge (BECKMAN COULTER) and spun at high speed (100,000 g) for 30 minutes at 4° C. The cytosol fraction was then collected and its protein amount determined using a BCA protein assay.
(§5) PDE assays were performed in thin walled V-bottomed 96-well plates. The assays were performed at a final concentration of 10 mM Tris/5 mM MgCl2 plus PDE4D5 cell lysate cytosol fraction, containing over-expressed PDE4D5, with and without test compound. The lysate/compound mix were incubated together for 15 min at room temperature on an orbital shaker prior to addition of [^3H] cAMP (final concentration 1 μM [^3H] cAMP; Perkin Elmer) to a final volume of 50 μl per reaction. The reactions were then incubated for 10 minutes at 30° C., terminated by heating for 2 min at 95° C. and allowed to cool. Snake venom (12.5 μl of 1 mg/ml; Crotalus atrox, Sigma) was then added and the plates were agitated and incubated for a further 15 minutes at 30° C. Dowex ion exchange resin (Sigma, chloride form, 200-400 mesh; 200 μl; prepared as a 1:1 Dowex: water stock, thoroughly re-suspended and diluted 2:1 with ethanol) was then added to each well and the plates incubated for 15 min at room temperature on an orbital shaker ensuring sufficient agitation for resin suspension (550 RPM). The reaction mixture was then transferred to a 96 well filter plate (Millipore; […] pore size) and filtered into a receiving 96-well plate to remove the dowex suspension. 30 μL of the filtered solution was then transferred to the wells of an Opti-plate (Perkin Elmer) 96 well assay plate and 120 μl of Microscint 40 scintillation fluid was added. The plate was then placed on an orbital shaker for 10 min at high speed (900 RPM) to mix the sample with scintillation fluid prior to quantitation using a plate based scintillation counter (Top-Count).
(§6) The % increase in counts in the presence of test compound at a particular concentration indicates the % increase in enzyme activity at that concentration.

MDCK cells [1] = test: Reduction of intracellular cAMP levels in forskolin stimulated MDCK cells; type: cell-based, canine; settings: compound 40 min prior to forskolin (1 μM) for 20 min
Experimental: MDCK cells were seeded at 100,000 cells per well, and left to adhere overnight. The cells were then treated with the test compound for 40 minutes, prior to stimulation with forskolin (1 μM, Sigma) for 20 minutes. Media was aspirated, and hydrochloric acid (0.1 M) was added to lyse the cells. The cAMP assay (Enzo Life Sciences) was performed according to the manufacturer's instructions.

PDE4B2 = molecular target: T2, PDE4B2 (Homo sapiens, UniProt Q07343); test: PDE assay, [3H]cAMP hydrolysis by HEK-PDE4B2 cell lysate cytosol fraction (short form); type: biochemical; settings: mean % increase in counts over basal activity
T2 construct: the full length human PDE4B2 short isoform; made in house
T2 sequence (Q07343 1-564 isoform Q07343-2): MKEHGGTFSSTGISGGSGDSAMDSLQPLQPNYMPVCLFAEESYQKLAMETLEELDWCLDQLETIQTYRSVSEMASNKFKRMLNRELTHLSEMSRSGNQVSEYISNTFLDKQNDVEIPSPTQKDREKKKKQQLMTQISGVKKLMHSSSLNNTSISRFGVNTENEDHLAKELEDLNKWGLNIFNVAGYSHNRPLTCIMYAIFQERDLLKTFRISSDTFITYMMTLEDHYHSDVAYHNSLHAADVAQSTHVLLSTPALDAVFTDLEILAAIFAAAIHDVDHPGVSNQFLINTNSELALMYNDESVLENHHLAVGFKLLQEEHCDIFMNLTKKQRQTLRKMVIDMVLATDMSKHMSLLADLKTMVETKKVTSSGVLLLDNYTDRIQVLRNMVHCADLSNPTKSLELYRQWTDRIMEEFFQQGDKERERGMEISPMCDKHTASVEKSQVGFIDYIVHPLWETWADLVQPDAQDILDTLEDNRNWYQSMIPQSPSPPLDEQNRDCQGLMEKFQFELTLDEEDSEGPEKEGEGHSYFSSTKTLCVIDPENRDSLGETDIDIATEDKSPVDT
Experimental: as §1, §2, §3, §4, §5, §6

MDCK cells [2] = test: Inhibition of in vitro cyst formation in 3D culture of MDCK cells; type: cell-based, canine; settings: 300 nM prostaglandin E2, 10 days; % Cyst Volume compared to vehicle
Excerpt: In this study, the well-established three-dimensional (3D) MDCK cell model is used to investigate the effects of PDE4 long form activators on the formation of kidney cysts and evaluate their potential in the treatment of polycystic kidney diseases. 3D cysts are generated based on the method of Mao et al. (Mao, Z., Streets, A. J., Ong, A. C. M. Am. J. Physiol. Renal Physiol. 300(6): F1375-F1384, 2011), with some modifications.
Type 1 collagen (Invitrogen) is first prepared on ice by neutralising an acidic stock solution (3 mg/ml) with 17 mM NaOH and diluting it to 1 mg/ml with DMEM, supplemented with 2% (v/v) FBS, 2 mM L-glutamine, 1,000 U penicillin and 1,000 μg streptomycin (DMEM-2% FBS). […]
Phase-contrast images are obtained on the Motic microscope (×4 magnification). 8 images are taken per condition and the cyst diameter measured (up to 150 cyst measurements per well). Cyst spheroid volume is calculated using the formula 4/3πr^3 where r is the radius of the spheroid. A mean cyst volume is then calculated per well. The mean cyst volume and standard deviation between the duplicate wells is then calculated and expressed as a % Cyst Volume compared to the vehicle only (DMSO+300 nM PGE2) control wells. […]

PDE4B1 = molecular target: T3, PDE4B1 (Homo sapiens, UniProt Q07343); test: PDE assay, [3H]cAMP hydrolysis by HEK-PDE4B1 cell lysate cytosol fraction; type: biochemical; settings: mean % increase in counts over basal activity
T3 construct: stably expressed the full-length human PDE4D5, PDE4B1 and PDE4A4 long isoforms; made in house
T3 sequence (Q07343 whole entry, canonical isoform): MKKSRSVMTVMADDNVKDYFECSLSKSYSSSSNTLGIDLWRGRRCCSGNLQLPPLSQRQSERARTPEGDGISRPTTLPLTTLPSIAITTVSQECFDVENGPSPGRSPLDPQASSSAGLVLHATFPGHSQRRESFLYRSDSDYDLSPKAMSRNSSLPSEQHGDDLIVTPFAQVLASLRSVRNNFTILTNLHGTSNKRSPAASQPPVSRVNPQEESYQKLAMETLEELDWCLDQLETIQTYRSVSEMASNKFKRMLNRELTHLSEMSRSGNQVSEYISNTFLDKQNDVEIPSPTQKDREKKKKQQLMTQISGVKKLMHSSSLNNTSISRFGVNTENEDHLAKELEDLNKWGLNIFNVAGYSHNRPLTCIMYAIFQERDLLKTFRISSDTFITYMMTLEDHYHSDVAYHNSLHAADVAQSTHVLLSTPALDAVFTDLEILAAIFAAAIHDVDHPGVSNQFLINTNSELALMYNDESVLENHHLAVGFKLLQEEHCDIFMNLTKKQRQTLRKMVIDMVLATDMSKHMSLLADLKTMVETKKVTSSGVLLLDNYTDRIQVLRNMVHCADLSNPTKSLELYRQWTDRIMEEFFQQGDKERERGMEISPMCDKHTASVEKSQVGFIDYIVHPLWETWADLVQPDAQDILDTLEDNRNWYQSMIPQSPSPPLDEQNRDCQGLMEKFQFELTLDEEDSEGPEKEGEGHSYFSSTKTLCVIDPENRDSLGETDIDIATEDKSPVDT

PDE4A4 = molecular target: T4, PDE4A4 (Homo sapiens, UniProt P27815); test: PDE assay, [3H]cAMP hydrolysis by HEK-PDE4A4 cell lysate cytosol fraction; type: biochemical; settings: mean % increase in counts over basal activity
T4 construct: stably expressed the full-length human PDE4D5, PDE4B1 and PDE4A4 long isoforms; made in house
T4 sequence (P27815 whole entry, canonical isoform): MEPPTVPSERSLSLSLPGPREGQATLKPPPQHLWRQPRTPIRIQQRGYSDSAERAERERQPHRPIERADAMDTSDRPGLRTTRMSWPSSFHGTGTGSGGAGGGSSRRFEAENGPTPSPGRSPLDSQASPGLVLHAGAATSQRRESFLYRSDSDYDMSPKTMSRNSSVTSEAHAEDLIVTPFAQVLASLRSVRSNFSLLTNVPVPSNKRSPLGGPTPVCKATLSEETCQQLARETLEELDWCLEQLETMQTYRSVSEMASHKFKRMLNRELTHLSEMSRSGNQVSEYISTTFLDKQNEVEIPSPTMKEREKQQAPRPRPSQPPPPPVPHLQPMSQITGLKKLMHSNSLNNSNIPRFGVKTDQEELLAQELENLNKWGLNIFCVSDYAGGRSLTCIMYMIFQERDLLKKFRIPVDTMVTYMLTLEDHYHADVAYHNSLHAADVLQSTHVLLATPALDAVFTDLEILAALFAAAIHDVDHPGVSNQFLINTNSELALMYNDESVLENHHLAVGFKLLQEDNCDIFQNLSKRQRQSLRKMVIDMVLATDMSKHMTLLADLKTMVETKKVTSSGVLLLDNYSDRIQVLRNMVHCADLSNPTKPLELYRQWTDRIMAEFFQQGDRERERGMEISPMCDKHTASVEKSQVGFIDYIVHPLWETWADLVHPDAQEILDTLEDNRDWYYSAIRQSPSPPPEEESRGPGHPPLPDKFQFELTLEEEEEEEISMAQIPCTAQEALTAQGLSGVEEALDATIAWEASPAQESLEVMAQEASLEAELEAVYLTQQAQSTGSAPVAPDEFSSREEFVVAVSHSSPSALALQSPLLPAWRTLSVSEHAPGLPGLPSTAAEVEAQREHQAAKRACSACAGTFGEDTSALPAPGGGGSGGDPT

T1 sequence (Q08499 1-745 isoform Q08499-6): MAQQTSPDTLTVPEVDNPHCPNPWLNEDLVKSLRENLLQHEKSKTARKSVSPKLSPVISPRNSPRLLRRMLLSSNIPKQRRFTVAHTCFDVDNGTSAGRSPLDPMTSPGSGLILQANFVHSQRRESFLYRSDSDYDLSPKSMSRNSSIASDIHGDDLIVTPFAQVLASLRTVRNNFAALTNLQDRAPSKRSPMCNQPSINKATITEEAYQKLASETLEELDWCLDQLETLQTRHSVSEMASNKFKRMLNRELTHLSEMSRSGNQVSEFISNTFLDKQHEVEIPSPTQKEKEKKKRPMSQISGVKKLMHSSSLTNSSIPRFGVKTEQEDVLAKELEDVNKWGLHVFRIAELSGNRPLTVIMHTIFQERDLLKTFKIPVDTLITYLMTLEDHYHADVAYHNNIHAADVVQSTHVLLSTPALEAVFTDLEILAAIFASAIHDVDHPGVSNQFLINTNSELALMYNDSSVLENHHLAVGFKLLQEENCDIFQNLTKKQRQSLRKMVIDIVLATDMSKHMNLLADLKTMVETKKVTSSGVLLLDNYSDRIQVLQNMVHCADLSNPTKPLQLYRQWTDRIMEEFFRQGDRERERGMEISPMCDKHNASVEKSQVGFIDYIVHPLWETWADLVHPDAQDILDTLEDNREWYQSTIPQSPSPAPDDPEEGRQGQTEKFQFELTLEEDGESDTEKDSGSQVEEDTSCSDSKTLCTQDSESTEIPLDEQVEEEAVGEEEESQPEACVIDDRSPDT

Row | activation at 30 µM (PDE4D5) [%] | % increase in PDE4B2 activity at 30 μM (PDE4B2) [%] | % increase in PDE4B1 activity at 30 μM (PDE4B1) [%] | % increase in PDE4A4 activity at 30 μM (PDE4A4) [%] | Compound | intracellular cAMP levels in MDCK cells (FIG. 2) (MDCK cells [1]) | cyst formation in 3D culture of MDCK cells (FIG. 3) (MDCK cells [2])
1 | 73.2 | −10.9 | – | – | CCn1nc(-c2ccc(Cl)c(F)c2)nc1CC(=O)NCc1cc(C)nc(C)c1 [Example 3, 2-[3-(4-Chloro-3-fluorophenyl)-1-ethyl-1H-1,2,4-triazol-5-yl]-N-((2,6-dimethylpyridin-4-yl)methyl)acetamide] | reduction in intracellular cAMP levels | inhibition of cyst formation
2 | – | – | 79.1 | – | CCn1nc(-c2ccc(Cl)c(F)c2)nc1CC(=O)NCc1cccc(F)c1 [Example 1, 2-[3-(4-Chloro-3-fluorophenyl)-1-ethyl-1H-1,2,4-triazol-5-yl]-N-(3-fluorobenzyl) acetamide] | – | –
3 | – | – | 99.4 | – | CCn1nc(-c2ccc(Cl)c(F)c2)nc1CC(=O)NCc1cccc(OC)c1 [Example 2, 2-[3-(4-Chloro-3-fluorophenyl)-1-ethyl-1H-1,2,4-triazol-5-yl]-N-(3-methoxybenzyl) acetamide] | – | –

Continued, molecule first:

Row | Compound | activation at 30 µM (PDE4D5) [%] | % increase in PDE4B2 activity at 30 μM (PDE4B2) [%] | % increase in PDE4B1 activity at 30 μM (PDE4B1) [%] | % increase in PDE4A4 activity at 30 μM (PDE4A4) [%] | intracellular cAMP levels in MDCK cells (FIG. 2) (MDCK cells [1]) | cyst formation in 3D culture of MDCK cells (FIG. 3) (MDCK cells [2])
4 | CCn1nc(-c2ccc(Cl)c(OC(C)C)c2)nc1CC(=O)NCc1cc(Cl)cc(Cl)c1 [Example 34, 2-[3-(4-Chloro-3-isopropyloxyphenyl)-1-ethyl-1H-1,2,4-triazol-5-yl]-N-[(3,5-dichlorophenyl)methyl]acetamide] | 108 | −4.4 | – | 75.5 | – | –
5 | CCn1nc(-c2ccc(Cl)c(OC)c2)nc1CC(=O)NCc1cc(Cl)cc(Cl)c1 [Example 29, 2-[3-(4-Chloro-3-methoxyphenyl)-1-ethyl-1H-1,2,4-triazol-5-yl]-N-[(3,5-dichlorophenyl)methyl]acetamide] | 104 | 3.4 | – | – | – | –
6 | COCCn1nc(-c2ccc(Cl)c(F)c2)nc1CC(=O)NCc1cc(Cl)cc(Cl)c1 [Example 22, 2-[3-(4-Chloro-3-fluorophenyl)-1-(2-methoxyethyl)-1H-1,2,4-triazol-5-yl]-N-[(3,5-dichlorophenyl)methyl]acetamide] | 99.9 | −2.9 | – | 92.5 | – | –
